In US7875633B2, “Phenylpyridone derivative” (Banyu Pharmaceutical Co., Ltd., priority 2005, dated 2011):

molecular target: T1, human MCH-1R (Homo sapiens, UniProt Q99705); experiment: MCH binding inhibition test; details: membranes of MCH-1R expressing CHO-K1 cells, 50 pM [125I]MCH, 25° C., one hour, pH 7.4; read-out: IC50 (50% inhibition concentration to the specific [125I]MCH binding)
T1 construct: expressed in transfected cells; host or cells: CHO-K1 (American Type Culture Collection); membrane samples
Source text: Pharmacological Test Example 1 (MCH Binding Inhibition Test)
A human MCH-1R encoding cDNA sequence [FEBS Letters, Vol. 398, 253 (1996); Biochimica et Biophisica Acta, Vol. 1401, 216 (1998)] was cloned to a plasmid vector pEF/myc/cyto (Invitrogen Corporation). The obtained expression vector was transfected to host cells CHO-K1 (American Type Culture Collection) using Lipofectamine Plus Reagent (Life Technology Inc.) to provide MCH-1R expression cells.
Membrane samples prepared from the MCH-1R expression cells were incubated with each test compound and 50 pM of [^125I]MCH (NEN Co.), in an assay buffer (50 mM Tris buffer comprising 10 mM magnesium chloride, 2 mM ethylenediamine tetraacetate, 0.01% bacitracin and 0.2% bovine serum albumin; pH 7.4) at 25° C. for an hour, followed by filtration through a glass filter GF/C (Wattman Co.). After washing the glass filter with 50 mM Tris buffer (pH 7.4) comprising 10 mM magnesium chloride, 2 mM ethylenediamine tetraacetate and 0.04% Tween-20, the radioactive activity on the glass filter was measured. The non-specific binding was measured in the presence of 1 μM human MCH and 50% inhibition concentration (IC50 value) of each test compound to the specific [^125I]MCH binding was determined.

T1 sequence (Q99705 whole entry): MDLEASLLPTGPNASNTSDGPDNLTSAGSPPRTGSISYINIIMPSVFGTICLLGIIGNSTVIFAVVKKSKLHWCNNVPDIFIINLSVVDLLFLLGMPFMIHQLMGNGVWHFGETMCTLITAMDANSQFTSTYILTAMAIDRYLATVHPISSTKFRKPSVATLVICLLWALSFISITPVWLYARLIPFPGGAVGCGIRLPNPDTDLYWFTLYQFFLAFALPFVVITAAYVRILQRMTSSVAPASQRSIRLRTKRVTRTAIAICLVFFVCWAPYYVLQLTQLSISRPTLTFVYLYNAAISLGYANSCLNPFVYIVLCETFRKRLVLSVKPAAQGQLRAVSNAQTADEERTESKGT

IC50 [nM]	Structure (SMILES)
1.5	CCN(C)C/C=C/c1ccc(-n2ccc(OCc3ccc(Cl)cc3)cc2=O)cc1 [Example 3, 4-[(4-Chlorobenzyl)oxy]-1-(4-{(1E)-3-[ethyl(methyl)amino]-1-propen-1-yl}phenyl)pyridin-2(1H)-one]
1.2	CCCN(C)C/C=C/c1ccc(-n2ccc(OCc3ccc(Cl)cc3)cc2=O)cc1 [Example 4, 4-[(4-Chlorobenzyl)oxy]-1-(4-{(1E)-3-[propyl(methyl)amino]-1-propen-1-yl}phenyl)pyridin-2(1H)-one]
1.4	CC(C)N(C)C/C=C/c1ccc(-n2ccc(OCc3ccc(Cl)cc3)cc2=O)cc1 [Example 5, 4-[(4-Chlorobenzyl)oxy]-1-(4-{(1E)-3-[isopropyl(methyl)amino]-1-propen-1-yl]phenyl}pyridin-2(1H)-one]
0.93	CCCCN(C)C/C=C/c1ccc(-n2ccc(OCc3ccc(Cl)cc3)cc2=O)cc1 [Example 6, 4-[(4-Chlorobenzyl)oxy]-1-(4-{(1E)-3-[butyl(methyl)amino]-1-propen-1-yl}phenyl)pyridin-2(1H)-one]
1.4	CN(C)C/C=C/c1ccc(-n2ccc(OCc3ccc(Cl)cc3)cc2=O)cc1 [Example 8, 4-[(4-Chlorobenzyl)oxy]-1-(4-[(1E)-3-(dimethylamino)-1-propen-1-yl]phenyl)pyridin-2(1H)-one]
4.5	O=c1cc(OCc2ccc(F)cc2)ccn1-c1ccc(NCCN2CCCC2)cc1 [Example 14, 4-[(4-Fluorobenzyl)oxy]-1-{4-[(2-pyrrolidin-1-ylethyl)amino]phenyl}pyridin-2(1H)-one]
5.8	CO[C@H]1CCN(CCc2ccc(-n3ccc(OCc4ccc(F)cc4)cc3=O)cc2)C1 [Example 27, 4-[(4-Fluorobenzyl)oxy]-1-(4-{2-[(3S)-3-methoxypyrrolidin-1-yl]ethyl}phenyl)pyridin-2(1H)-one]
6.2	CCN(CC)CCc1ccc(-n2ccc(OCc3ccc(Cl)cn3)cc2=O)cc1 [Example 32, 4-[(5-Chloropyridin-2-yl)methoxy]-1-{4-[2-(diethylamino)ethyl]phenyl}pyridin-2(1H)-one]
4.6	O=c1cc(OCc2ccc(Cl)cn2)ccn1-c1ccc(CCNC2CCCC2)cc1 [Example 37, 4-[(5-Chloropyridin-2-yl)methoxy]-1-{4-[(2-cyclopentylamino)ethyl]phenyl}pyridin-2(1H)-one]
3.5	O=c1cc(OCc2ccc(F)cc2)ccn1-c1ccc([C@H]2C[C@H](N3CCCC3)C2)cc1 [Example 53, 4-[(4-Fluorobenzyl)oxy]-1-[4-(trans-3-pyrrolidin-1-ylcyclobutyl)phenyl]pyridin-2(1H)-one]
